These results are taken from article PMC3526597, “High-Glucose-Induced Endothelial Cell Injury Is Inhibited by a Peptide Derived from Human Apolipoprotein E” (PLoS ONE, 2012).

The data set can be described thus: Corneal penetration assay (aqueous humor level after eye drop). The format is in vivo, mouse. The following applies: for Total / Measure concentration: mouse aqueous humor, UPLC-MS; for Measure concentration: sample mixed with 1 ml 0.1% formic acid. Here is the method: The apoEdp peptide (LRKLRKRLLLRKLRKRLL) is rich in cationic amino acids lysine and arginine. ApoEdp is more cationic than HIV-1 Tat cell penetrating peptide (Table 1). We hypothesized that apoEdp could act as a corneal penetrating peptide.
Mouse eyes were treated with 1% apoEdp drops. At 0, 1, 2, 3, hours post-treatment, mice were sacrificed and eyes were enucleated. The globes were washed with sterile PBS three times and aqueous humor was aspirated using a 27-gauge needle and 1 mL syringe. The mouse aqueous humor samples were mixed with 1 ml of 0.1% formic acid solution and allowed to stand for 5 minutes. The samples were filtered with a 0.2-micron filter and analyzed using a Waters Acquity UPLC system (Milford, MA) with mass spectrophotometrical detection. […] These peaks included 483.9 m/z 604.4 m/z, and 805.6 m/z. We used the […] peak for the analysis because it was the strongest. For the UPLC analysis, we used a BEH300 C4 column 2.1 mm×100 mm×1.7 µm. A 2 component mobile phase was used with component 1:0.1% formic Acid, and Component 2: Acetonitrile with 0.1% formic acid. The flow rate was 0.2 ml/min and gradient elution was used with a linear gradient.

The mark [1] stands for this setting: 2 hours after 1% apoEdp eye drop, left eye.
The mark [2] stands for this setting: 2 hours after 1% apoEdp eye drop, right eye.
Where [3] appears, read: 3 hours after 1% apoEdp eye drop, left eye.
The mark [4] stands for this setting: 3 hours after 1% apoEdp eye drop, right eye.

Peptide text beside a SMILES is read from it.

For `CC(=O)N[C@@H](CC(C)C)C(=O)N[C@@H](CCCNC(=N)N)C(=O)N[C@@H](CCCCN)C(=O)N[C@@H](CC(C)C)C(=O)N[C@@H](CCCNC(=N)N)C(=O)N[C@@H](CCCCN)C(=O)N[C@@H](CCCNC(=N)N)C(=O)N[C@@H](CC(C)C)C(=O)N[C@@H](CC(C)C)C(=O)N[C@@H](CC(C)C)C(=O)N[C@@H](CCCNC(=N)N)C(=O)N[C@@H](CCCCN)C(=O)N[C@@H](CC(C)C)C(=O)N[C@@H](CCCNC(=N)N)C(=O)N[C@@H](CCCCN)C(=O)N[C@@H](CCCNC(=N)N)C(=O)N[C@@H](CC(C)C)C(=O)N[C@@H](CC(C)C)C(N)=O` [apoEdp] (Ac-LRKLRKRLLLRKLRKRLL-NH2), the “time to reach the anterior chamber of the eye” value (applied topically (1% eye drop), mouse eyes) is no more than 3 h. Also, the Total under setting [1] is given as 3.89 ng, the Total under setting [2] came out at 5.9 ng, the Total under setting [3] is 58.08 ng and the Total under setting [4] was determined as 36.3 ng. The molecule further yielded a Measure concentration under setting [1] of 0.004 µg/mL, a Measure concentration under setting [2] of 0.006 µg/mL, a Measure concentration under setting [3] of 0.058 µg/mL and a Measure concentration under setting [4] of 0.036 µg/mL.
